# Read-outs that look alike come from different tables or passages of the source.
# Experiments:
# [1] = Safety assessment in the crossover study (adverse events, laboratory tests); type: in vivo, human; for DIARRHEA (treatment emergent AE): test concentration or dose not given here; for ERYTHEMA, PALMAR (treatment emergent AE): test concentration or dose not given here
# Text: Seventy-four healthy, non-smoking, male & female subjects, 18-65 years old were enrolled in this study. A total of 68 subjects completed all the requirements of the protocol. There were no enrollment violations. However, nine of the 74 subjects began the study during the third period of the initial group of subjects. All 74 subjects who received at least one dose of study medication were included in the safety analysis.
# This study was a single center, randomized, open-label, 4-way crossover study in healthy subjects. Dosing was administered in the fasted state. Seventy-four (74) subjects were randomized into the study. All seventy-four subjects received one or more doses of study medication and are therefore included in the safety assessment. On Treatment Day 1 of the first treatment period, each subject was randomized to receive one of four possible study treatment sequences. The treatment groups consisted of the four treatments administered sequentially as DCAB, ADBC, BACD or CBDA. These treatments are shown below.
# A signed informed consent was obtained from each subject. For screening purposes, the following procedures were required of each subject and were performed by the clinical site within 30 days prior to the study: a complete physical examination including a medical history, vital signs, clinical laboratory safety tests on blood and urine, medications taken prior to and during the study, and a serum pregnancy test for female subjects.
# During the treatments, temperature, blood pressure, heart rate and respiratory rate were monitored as a safety measure. A physical examination and clinical laboratory tests were repeated at the completion of the study. Subjects were observed and questioned throughout the study for the occurrence of any adverse events.
# [2] = cited from earlier work
# [3] = FDA notice; cited from earlier work
# [4] = 74 subjects, all 4 treatment periods
substance,measurement,setting,value
"N-[2-(dimethylamino)-ethoxy]-3,4,5trimethoxybenzamide hydrochloride [trimethobenzamide hydrochloride]",subjects with decreased red blood cell count at the end of treatment,[1]; 5 percent prior to treatment,11%
same,subjects with low hematocrit at the end of treatment,[1]; 8 percent prior to treatment,34%
same,"adverse events (AEs) experienced, total",[1]; [4],28
same,treatment emergent AEs,[1]; [4],27
same,AEs assessed as related to study treatment,[1]; all mild to moderate,21
same,hematocrit mean change,[1]; end of treatment vs prior,2.3%
same,hemoglobin mean change,[1]; end of treatment vs prior,0.6 g/dL
same,red blood cell count mean change,[1]; end of treatment vs prior,2e+11 L⁻¹
same,overall safety and tolerability,[1]; in vivo,safe and well tolerated
same,serious AEs,[1]; in vivo,no serious AEs
same,subjects with normal hemoglobin prior to treatment who had low hemoglobin at the end of treatment,[1]; no clinical significance,13%
same,dizziness,[1]; number of events,3
same,neurologic complaints,[1]; number of events,15
same,paresthesias,[1]; number of events,3
same,headaches,"[1]; number of events, in a total of 7 subjects",8
same,subjects prematurely withdrawn due to adverse events,[1]; of 6 withdrawn,4
same,samples with hyperkalemia,"[1]; of the 72 samples drawn at the end of the study, due to hemolyzed specimens",55
same,ABDOMINAL PAIN (treatment emergent AE),[1]; sequence A D B C (N = 20),5.0%
same,CONJUNCTIVITIS (treatment emergent AE),[1]; sequence A D B C (N = 20),5.0%
same,DIARRHEA (treatment emergent AE),[1]; sequence A D B C (N = 20),0.0%
same,DIZZINESS (treatment emergent AE),[1]; sequence A D B C (N = 20),15.0%
same,"EDEMA, PALMAR (treatment emergent AE)",[1]; sequence A D B C (N = 20),5.0%
same,"ERYTHEMA, EXTERNAL NOSE (treatment emergent AE)",[1]; sequence A D B C (N = 20),0.0%
same,"ERYTHEMA, PALMAR (treatment emergent AE)",[1]; sequence A D B C (N = 20),5.0%
same,HEADACHE (treatment emergent AE),[1]; sequence A D B C (N = 20),5.0%
same,HYPOTONIA (treatment emergent AE),[1]; sequence A D B C (N = 20),0.0%
same,INJECTION SITE REACTION (treatment emergent AE),[1]; sequence A D B C (N = 20),0.0%
same,LEG CRAMPS (treatment emergent AE),[1]; sequence A D B C (N = 20),0.0%
same,NAUSEA (treatment emergent AE),[1]; sequence A D B C (N = 20),5.0%
same,NAUSEA AND VOMITING (treatment emergent AE),[1]; sequence A D B C (N = 20),5.0%
same,Number of Subject With At Least one AE,[1]; sequence A D B C (N = 20),25.0%
same,Number of Subject With No AE,[1]; sequence A D B C (N = 20),75.0%
same,PARESTHESIA (treatment emergent AE),[1]; sequence A D B C (N = 20),0.0%
same,PHARYNGITIS (treatment emergent AE),[1]; sequence A D B C (N = 20),0.0%
same,RASH (treatment emergent AE),[1]; sequence A D B C (N = 20),0.0%
same,[…] (treatment emergent AE),[1]; sequence A D B C (N = 20),0.0%
same,ABDOMINAL PAIN (treatment emergent AE),[1]; sequence B A C D (N = 18),0.0%
same,CONJUNCTIVITIS (treatment emergent AE),[1]; sequence B A C D (N = 18),0.0%
same,DIARRHEA (treatment emergent AE),[1]; sequence B A C D (N = 18),0.0%
same,DIZZINESS (treatment emergent AE),[1]; sequence B A C D (N = 18),0.0%
same,"EDEMA, PALMAR (treatment emergent AE)",[1]; sequence B A C D (N = 18),0.0%
same,"ERYTHEMA, EXTERNAL NOSE (treatment emergent AE)",[1]; sequence B A C D (N = 18),0.0%
same,"ERYTHEMA, PALMAR (treatment emergent AE)",[1]; sequence B A C D (N = 18),0.0%
same,HEADACHE (treatment emergent AE),[1]; sequence B A C D (N = 18),0.0%
same,HYPOTONIA (treatment emergent AE),[1]; sequence B A C D (N = 18),0.0%
same,INJECTION SITE REACTION (treatment emergent AE),[1]; sequence B A C D (N = 18),5.6%
same,LEG CRAMPS (treatment emergent AE),[1]; sequence B A C D (N = 18),0.0%
same,NAUSEA (treatment emergent AE),[1]; sequence B A C D (N = 18),0.0%
same,NAUSEA AND VOMITING (treatment emergent AE),[1]; sequence B A C D (N = 18),0.0%
same,Number of Subject With At Least one AE,[1]; sequence B A C D (N = 18),22.2%
same,Number of Subject With No AE,[1]; sequence B A C D (N = 18),77.8%
same,PARESTHESIA (treatment emergent AE),[1]; sequence B A C D (N = 18),11.1%
same,PHARYNGITIS (treatment emergent AE),[1]; sequence B A C D (N = 18),0.0%
same,RASH (treatment emergent AE),[1]; sequence B A C D (N = 18),5.6%
same,[…] (treatment emergent AE),[1]; sequence B A C D (N = 18),5.6%
same,ABDOMINAL PAIN (treatment emergent AE),[1]; sequence C B D A (N = 18),0.0%
same,CONJUNCTIVITIS (treatment emergent AE),[1]; sequence C B D A (N = 18),0.0%
same,DIARRHEA (treatment emergent AE),[1]; sequence C B D A (N = 18),5.6%
same,DIZZINESS (treatment emergent AE),[1]; sequence C B D A (N = 18),0.0%
same,"EDEMA, PALMAR (treatment emergent AE)",[1]; sequence C B D A (N = 18),0.0%
same,"ERYTHEMA, EXTERNAL NOSE (treatment emergent AE)",[1]; sequence C B D A (N = 18),5.6%
same,"ERYTHEMA, PALMAR (treatment emergent AE)",[1]; sequence C B D A (N = 18),0.0%
same,HEADACHE (treatment emergent AE),[1]; sequence C B D A (N = 18),16.7%
same,HYPOTONIA (treatment emergent AE),[1]; sequence C B D A (N = 18),5.6%
same,INJECTION SITE REACTION (treatment emergent AE),[1]; sequence C B D A (N = 18),0.0%
same,LEG CRAMPS (treatment emergent AE),[1]; sequence C B D A (N = 18),0.0%
same,NAUSEA (treatment emergent AE),[1]; sequence C B D A (N = 18),0.0%
same,NAUSEA AND VOMITING (treatment emergent AE),[1]; sequence C B D A (N = 18),0.0%
same,Number of Subject With At Least one AE,[1]; sequence C B D A (N = 18),22.2%
same,Number of Subject With No AE,[1]; sequence C B D A (N = 18),77.8%
same,PARESTHESIA (treatment emergent AE),[1]; sequence C B D A (N = 18),0.0%
same,PHARYNGITIS (treatment emergent AE),[1]; sequence C B D A (N = 18),0.0%
same,RASH (treatment emergent AE),[1]; sequence C B D A (N = 18),0.0%
same,[…] (treatment emergent AE),[1]; sequence C B D A (N = 18),0.0%
same,ABDOMINAL PAIN (treatment emergent AE),[1]; sequence D C A B (N = 18),0.0%
same,CONJUNCTIVITIS (treatment emergent AE),[1]; sequence D C A B (N = 18),0.0%
same,DIARRHEA (treatment emergent AE),[1]; sequence D C A B (N = 18),0.0%
same,DIZZINESS (treatment emergent AE),[1]; sequence D C A B (N = 18),0.0%
same,"EDEMA, PALMAR (treatment emergent AE)",[1]; sequence D C A B (N = 18),0.0%
same,"ERYTHEMA, EXTERNAL NOSE (treatment emergent AE)",[1]; sequence D C A B (N = 18),0.0%
same,"ERYTHEMA, PALMAR (treatment emergent AE)",[1]; sequence D C A B (N = 18),0.0%
same,HEADACHE (treatment emergent AE),[1]; sequence D C A B (N = 18),16.7%
same,HYPOTONIA (treatment emergent AE),[1]; sequence D C A B (N = 18),0.0%
same,INJECTION SITE REACTION (treatment emergent AE),[1]; sequence D C A B (N = 18),0.0%
same,LEG CRAMPS (treatment emergent AE),[1]; sequence D C A B (N = 18),5.6%
same,NAUSEA (treatment emergent AE),[1]; sequence D C A B (N = 18),0.0%
same,NAUSEA AND VOMITING (treatment emergent AE),[1]; sequence D C A B (N = 18),0.0%
same,Number of Subject With At Least one AE,[1]; sequence D C A B (N = 18),27.8%
same,Number of Subject With No AE,[1]; sequence D C A B (N = 18),72.2%
same,PARESTHESIA (treatment emergent AE),[1]; sequence D C A B (N = 18),5.6%
same,PHARYNGITIS (treatment emergent AE),[1]; sequence D C A B (N = 18),0.0%
same,RASH (treatment emergent AE),[1]; sequence D C A B (N = 18),0.0%
same,[…] (treatment emergent AE),[1]; sequence D C A B (N = 18),0.0%
same,severe AEs,"[1]; severe pharyngitis, judged unrelated to study treatment",1
same,DURATION,[2]; IM,2 to 3 h
same,ONSET,[2]; IM,15 to 35 min
same,DURATION,[2]; PO,3 to 4 h
same,ONSET,[2]; PO,10 to 40 min
same,DURATION,[2]; Rect,3 to 4 h
same,ONSET,[2]; Rect,10 to 40 min
same,plasma levels of an oral dose of 400 milligrams vs a 200-milligram intramuscular dose,[3],APP[…]
same,"systemic bioavailability of orally administered drug, of the bioavailability of intramuscularly administered drug",[3],about 60%

# — patent US20040034102A1, “Oral pediatric trimethobenzamide formulations and methods” (King Pharmaceuticals, Inc., priority 2002, published 2004)
